PubChem BioAssay (NCI)
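These data come from cells grown in 96-well plates and exposed to compound for 48 hours at five concentrations. The concentration for full growth arrest is given as TGI.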

What was measured:
Test in all cases: growth of human tumour cells (NCI), 48 h
MDA-N = test system: MDA-N
TK-10 renal = test system: TK-10 renal
SW-620 colon = test system: SW-620 colon
SK-MEL-2 melanoma = test system: SK-MEL-2 melanoma
UACC-62 melanoma = test system: UACC-62 melanoma
HOP-62 NSCLC = test system: HOP-62 NSCLC
NCI-H522 lung = test system: NCI-H522 lung
CCRF-CEM leukemia = test system: CCRF-CEM leukemia
SNB-19 CNS = test system: SNB-19 CNS
SF-268 CNS = test system: SF-268 CNS
T-47D breast = test system: T-47D breast
COLO 205 colon = test system: COLO 205 colon
MOLT-4 leukemia = test system: MOLT-4 leukemia
MDA-MB-231 breast = test system: MDA-MB-231 breast
MDA-MB-435 = test system: MDA-MB-435
RXF 393 renal = test system: RXF 393 renal
SF-539 CNS = test system: SF-539 CNS

Row | SMILES | TGI (MDA-N) | TGI (TK-10 renal) | TGI (SW-620 colon) | TGI (SK-MEL-2 melanoma) | TGI (UACC-62 melanoma) | TGI (HOP-62 NSCLC) | TGI (NCI-H522 lung) | TGI (CCRF-CEM leukemia) | TGI (SNB-19 CNS) | TGI (SF-268 CNS) | TGI (T-47D breast) | TGI (COLO 205 colon) | TGI (MOLT-4 leukemia) | TGI (MDA-MB-231 breast) | TGI (MDA-MB-435) | TGI (RXF 393 renal) | TGI (SF-539 CNS)
1 | Cc1c(C)c2ccc(OCC(O)COC(C)C)c(C)c2oc1=O (configuration not stated) | 33 µM | 62.3 µM | 93.1 µM | 36.8 µM | > 100 µM | 58.6 µM | 45.8 µM | 62.4 µM | > 100 µM | > 100 µM | > 100 µM | > 10 µM | > 10 µM |  |  |  | 
2 | COC(=O)[C@]12CC3C=CC1N(C3)C(CBr)c1c2n(S(=O)(=O)c2ccccc2)c2ccccc12 (some centres not stated) | > 100 µM | > 100 µM | > 100 µM | > 100 µM | > 100 µM | > 100 µM | > 100 µM | > 100 µM |  |  |  | > 100 µM |  | > 100 µM | > 100 µM | > 100 µM | 
3 | C=CC(=O)Nc1ccc(NC(=O)C=C)c2c1C(=O)c1ccccc1C2=O | > 100 µM | 62.5 µM | > 100 µM | > 100 µM | 90.8 µM | > 100 µM | 34.6 µM |  | > 100 µM |  | > 100 µM | > 100 µM | 96.4 µM | > 100 µM |  |  | 70.9 µM
4 | N#Cc1ccc(C(O)C(F)(F)c2nc3ccccc3o2)cc1 (configuration not stated) |  | > 100 µM | > 100 µM | > 100 µM | > 100 µM | > 100 µM |  | > 100 µM | > 100 µM | > 100 µM | > 100 µM | > 100 µM | > 100 µM | > 100 µM | > 100 µM | > 100 µM | > 100 µM
5 | OC12c3ccccc3C1CCCCC2N1CCCC1 (configuration not stated) |  | > 100 µM | > 100 µM | > 100 µM | > 100 µM | > 100 µM | > 100 µM | > 100 µM | > 100 µM | > 100 µM |  | > 100 µM | > 100 µM |  |  | > 100 µM | 
6 | CN1C(=O)C2(C)SC1(c1ccccc1)C1C(=O)N(c3ccccc3)C(=O)C12 (configuration not stated) | > 100 µM | > 100 µM | > 100 µM | > 100 µM | > 100 µM | > 100 µM | > 100 µM |  | > 100 µM | > 100 µM | > 100 µM | > 100 µM | > 100 µM | > 100 µM | > 100 µM | > 100 µM | > 100 µM
7 | CC(/C=C/C(=O)NO)=C\C(C)C(=O)c1ccc(N(C)C)cc1 (configuration not stated) | 11.5 µM | 0.107 µM | 29.8 µM | 0.778 µM | 0.063 µM | 14.6 µM | < 0.0129 µM |  | 0.654 µM | 0.195 µM | > 100 µM | 0.0854 µM |  | 0.0538 µM | 0.0467 µM | 0.104 µM | 2.04 µM
8 | COc1ccc(CNc2cnc3cc(N)ccc3n2)cc1 |  | > 100 µM | > 100 µM | > 100 µM | > 100 µM | > 100 µM | > 100 µM | > 100 µM | > 100 µM | > 100 µM |  | > 100 µM | > 100 µM |  |  | > 100 µM | > 100 µM
9 | CSc1ncnc2c1ncn2CCC(=O)O | > 100 µM | > 100 µM | > 100 µM |  | > 100 µM | > 100 µM | > 100 µM | > 100 µM | > 100 µM | > 100 µM |  | > 100 µM | > 100 µM | > 100 µM | > 100 µM | > 100 µM | > 100 µM
10 | COc1cc(/C=C2\C(=O)N(C(=O)Cc3ccccc3)N=C2C)cc(OC)c1OC |  | > 100 µM | > 100 µM | > 100 µM |  | > 100 µM | > 100 µM | > 100 µM | > 100 µM | > 100 µM |  | > 100 µM | > 100 µM |  |  |  | > 100 µM
11 | COc1cc2c(cc1OC)OC(c1c(OC)ccc(OC)c1O)CC2 (configuration not stated) |  | > 100 µM | > 100 µM | > 100 µM | > 100 µM | > 100 µM |  | 77.8 µM | > 100 µM | > 100 µM | > 100 µM | > 100 µM | > 100 µM | > 100 µM | > 100 µM | > 100 µM | > 100 µM
12 | CC(C)(O)C(O)COc1c2c(cc3oc(=O)ccc13)OCO2 (configuration not stated) |  | > 100 µM | > 100 µM | > 100 µM | > 100 µM | > 100 µM | > 100 µM | > 100 µM | > 100 µM | > 100 µM |  | > 100 µM | > 100 µM |  |  | > 100 µM | > 100 µM
13 | COc1ccc2c3c1OC1C(F)C=CC4(O)C(C2)NCCC314 (configuration not stated) | 11 µM | 12.8 µM | 7.71 µM | 6.65 µM | 10.5 µM | 7.13 µM | 2.02 µM | 3.91 µM | 5.78 µM | 6.93 µM |  | 3.12 µM | 3.76 µM | 12.7 µM | 3.34 µM | 7.98 µM | 
14 | COc1cccc2c1c1ccc3c(c1n2C)C(=O)C=CC3=O |  | 33.3 µM | 24.7 µM | 33 µM | 31.2 µM | > 100 µM | 14.7 µM | > 100 µM | > 100 µM | 33.6 µM |  | 19.6 µM | 8.65 µM |  |  |  | 30.9 µM
15 | CC(C)CC(NC(=O)C(C)(CI)Cc1ccccc1)C(=O)Nc1ccccc1 (configuration not stated) | > 100 µM | > 100 µM | > 100 µM | > 100 µM | > 100 µM |  | > 100 µM | > 100 µM | > 100 µM |  |  | > 100 µM | > 100 µM | > 100 µM | > 100 µM | > 100 µM | > 100 µM
16 | C=CCOC(=O)CC[C@H](NC(=O)[C@@H](CCC(F)(F)F)Cc1ccc(O)cc1)C(=O)OCC=C | > 100 µM |  | > 100 µM |  | > 100 µM | > 100 µM | 52.7 µM |  | > 100 µM | > 100 µM | 51.5 µM | 40.7 µM | 79.8 µM |  | 76 µM | > 100 µM | > 100 µM
